How the values were obtained:
NBD1/3D = assay: Aggregation analysis using differential static light scattering (DSLS), NBD1 thermal stability; format: binding, Human; details: ΔTagg versus DMSO control; compound at 100 μM
Outline: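 Thermal stabilisation reported as ΔTagg, i.e. aggregation temperature relative to averaged DMSO wells. Tagg came from the inflection of differential static light scattering imaged 25–70 °C while NBD1 (0.2 mg/ml, Tris pH 7.6 buffer containing ATP, MgCl2, DTT, glycerol) was ramped 1 °C/min.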

CFTR = target: T1, CFTR (Homo sapiens, UniProt P13569, DEL508-508); assay: TECC24 recording of CFTR-mediated transepithelial chloride transport in ΔF508 homozygous CF-HBE cells; format: cell-based; details: 10 μM test agent, 48 hours incubation, AUC of forskolin-stimulated IEQ divided by vehicle AUC, primary CF-HBE cells
T1 construct: Primary human bronchial epithelial cells from a ΔF508 homozygous CF donor; host or cells: primary human bronchial epithelial cells (CF-HBE), ΔF508 homozygous donor
Description: The effects of a test agent on CFTR-mediated transepithelial chloride transport was measured using TECC24 recording analysis. Test agents were solubilized in DMSO. Solubilized test agents were mixed with incubation medium containing DMEM/F12, Ultroser G (2%; Crescent Chemical, catalog #67042), Hyclone Fetal Clone II (2%; GE Healthcare, catalog #SH30066.02), bovine brain extract (0.25%; Lonza, catalog #CC-4098), insulin (2.5 μg/mL), IL-13 (10 ng/mL), hydrocortisone (20 nM), transferrin (2.5 μg/mL), triiodothyronine (500 nM), ethanolamine (250 nM), epinephrine (1.5 μM), phosphoethanolamine (250 nM), and retinoic acid (10 nM). Primary human bronchial epithelial cells from a ΔF508 homozygous CF donor (CF-HBE cells; from University of North Carolina Cystic Fibrosis Tissue Procurement Center), grown on Transwell HTS 24-well cell culture inserts (Costar, catalog #3378), were exposed to test agents or controls dissolved in incubation medium. The CF-HBE cells were cultured at 36.5° C. for 48 hours before TECC24 recordings were performed in the presence or absence of test agent, a positive control or vehicle (DMSO).
Following incubation, the transwell cell culture inserts containing the test agent or control-treated CF-HBE cells were loaded onto a TECC24 apparatus (TECC v7 or MTECC v2; EP Design) to record the transepithelial voltage (VT) and resistance (TEER) using 4 AgCl electrodes per well configured in current-clamp mode. The apical and basolateral bath solutions both contained (in mM) 140 NaCl, 5 KCl, 2 CaCl2, 1 MgCl2, 10 Hepes, and 10 glucose (adjusted to pH 7.4 with NaOH). To inhibit basal Na+ absorption, the ENaC inhibitor benzamil (10 μM) was added to the bath. Then, the adenylate cyclase activator, forskolin (10 μM), was added to the bath to activate CFTR. The forskolin-stimulated Cl— transport was halted by addition of CFTR inhibitor-172 (20 μM) to the bath at the end of the experiment to confirm specificity. VT and TEER recordings were digitally acquired at routine intervals using TECC or MTECC software (EP Design). VT and TEER were transformed into equivalent transpeithelial Cl— current (IEQ), and the Area Under the Curve (AUC) of the IEQ timecourse between forskolin and CFTR inhibitor-172 addition is generated using Excel (Microsoft). Efficacy is expressed as the ratio of the test agent AUC divided by vehicle AUC. EC50s based on AUC are generated using the non-linear regression log(agonist) vs. response function in Prism software (Graphpad) with HillSlope fixed=1.
If a test agent increased the AUC of the forskolin-stimulated IEQ relative to vehicle in CF-HBE cells, and this increase was inhibited by CFTR inhibitor-172, then the test agent was considered a CFTR corrector.

T1 sequence (P13569 with tags, fused parts or gaps DEL508-508): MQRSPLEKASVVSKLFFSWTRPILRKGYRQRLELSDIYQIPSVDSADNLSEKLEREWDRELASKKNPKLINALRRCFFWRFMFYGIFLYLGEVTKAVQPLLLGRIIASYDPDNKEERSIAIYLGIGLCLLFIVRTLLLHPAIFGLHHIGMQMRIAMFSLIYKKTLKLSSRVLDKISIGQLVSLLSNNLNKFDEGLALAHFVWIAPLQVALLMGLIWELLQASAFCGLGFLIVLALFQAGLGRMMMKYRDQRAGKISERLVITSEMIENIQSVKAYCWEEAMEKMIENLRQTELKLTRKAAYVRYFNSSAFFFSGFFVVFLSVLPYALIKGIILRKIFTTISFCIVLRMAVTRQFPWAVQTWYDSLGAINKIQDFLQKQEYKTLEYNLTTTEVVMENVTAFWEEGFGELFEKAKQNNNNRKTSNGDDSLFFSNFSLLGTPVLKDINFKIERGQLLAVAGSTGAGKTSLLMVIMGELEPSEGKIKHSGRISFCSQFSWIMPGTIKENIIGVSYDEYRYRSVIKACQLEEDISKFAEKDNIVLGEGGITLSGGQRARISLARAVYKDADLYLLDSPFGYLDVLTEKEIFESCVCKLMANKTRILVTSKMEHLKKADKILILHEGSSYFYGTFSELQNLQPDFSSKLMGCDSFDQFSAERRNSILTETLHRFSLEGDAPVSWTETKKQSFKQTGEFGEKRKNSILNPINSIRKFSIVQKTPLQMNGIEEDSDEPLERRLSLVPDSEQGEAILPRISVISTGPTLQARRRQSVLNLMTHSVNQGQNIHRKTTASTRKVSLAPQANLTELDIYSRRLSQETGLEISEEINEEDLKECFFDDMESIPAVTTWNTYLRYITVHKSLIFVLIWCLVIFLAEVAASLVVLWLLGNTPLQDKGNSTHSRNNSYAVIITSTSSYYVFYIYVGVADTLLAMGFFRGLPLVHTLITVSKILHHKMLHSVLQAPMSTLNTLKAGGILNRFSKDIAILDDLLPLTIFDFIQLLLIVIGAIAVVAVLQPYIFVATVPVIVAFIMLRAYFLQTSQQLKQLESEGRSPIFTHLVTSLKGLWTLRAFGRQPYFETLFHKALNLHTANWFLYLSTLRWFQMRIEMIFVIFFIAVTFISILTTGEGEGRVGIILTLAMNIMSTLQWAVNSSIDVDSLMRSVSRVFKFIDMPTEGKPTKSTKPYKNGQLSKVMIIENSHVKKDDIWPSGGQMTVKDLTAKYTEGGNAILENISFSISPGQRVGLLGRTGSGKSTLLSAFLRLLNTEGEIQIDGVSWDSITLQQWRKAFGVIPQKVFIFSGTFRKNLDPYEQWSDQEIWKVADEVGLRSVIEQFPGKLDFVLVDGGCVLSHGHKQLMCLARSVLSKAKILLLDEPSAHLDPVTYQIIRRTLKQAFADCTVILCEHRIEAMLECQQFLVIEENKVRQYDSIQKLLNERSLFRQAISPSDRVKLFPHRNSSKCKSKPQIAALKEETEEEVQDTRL

SMILES	DSLS NBD1/3D Human Stability delta-T (° C.) @ 100 (μM) (NBD1/3D)	TECC24 @ 10 μM over DMSO (AUC fold over DMSO) (CFTR)
O=C(O)CCc1cccc(Cc2cnc(-c3cc(Oc4c(F)c(F)c5[nH]ccc5c4F)ccc3F)[nH]2)c1F [Example 121, 3-(2-fluoro-3-((2-(2-fluoro-5-((4,6,7-trifluoro-1H-indol-5-yl)oxy)phenyl)-1H-imidazol-5-yl)methyl)phenyl)propanoic acid]	B (B: 5-10° C.)	A (“A” refers to AUC @10 uM >= 12)
CC(c1cnc(-c2cc(Oc3c(F)cc4[nH]ccc4c3CC(F)(F)F)ccc2F)[nH]1)c1cccc(CCC(=O)O)c1F (single isomer, unassigned) [Example 128B, 3-(2-fluoro-3-(1-(2-(2-fluoro-5-((6-fluoro-4-(2,2,2-trifluoroethyl)-1H-indol-5-yl)oxy)phenyl)-1H-imidazol-5-yl)ethyl)phenyl)propanoic acid]	A (A: T ≥ 10° C.)	A (“A” refers to AUC @10 uM >= 12)
CC(c1cnc(-c2cc(Oc3c(F)cc4[nH]ccc4c3CCP(C)(C)=O)ccc2F)[nH]1)c1cccc(CCC(=O)O)c1F (single isomer, unassigned) [Example 135A, 3-(3-(1-(2-(5-((4-(2-(dimethylphosphoryl)ethyl)-6-fluoro-1H-indol-5-yl)oxy)-2-fluorophenyl)-1H-imidazol-5-yl)ethyl)-2-fluorophenyl)propanoic acid]	A (A: T ≥ 10° C.)	C (“C” refers to AUC @ 10 uM <= 4)
CC(C#N)(c1cccc(CCC(=O)O)c1)c1c[nH]c(-c2cc(Oc3c(F)cc4[nH]ccc4c3CC(F)(F)F)ccc2F)n1 (centres unmarked) [Example 52, 3-(3-(1-cyano-1-(2-(2-fluoro-5-((6-fluoro-4-(2,2,2-trifluoroethyl)-1H-indol-5-yl)oxy)phenyl)-1H-imidazol-4-yl)ethyl)phenyl)propanoic acid]	B (B: 5-10° C.)	B (“B” refers to AUC @10 uM between 4-12)
Cc1nc(-c2cc(Oc3c(F)cc4[nH]ccc4c3F)ccc2F)[nH]c1C(O)c1cccc(CCC(=O)O)c1F (single isomer, unassigned) [Example 180, 3-(3-((2-(5-((4,6-difluoro-1H-indol-5-yl)oxy)-2-fluorophenyl)-4-methyl-1H-imidazol-5-yl)(hydroxy)methyl)-2-fluorophenyl)propanoic acid]	A (A: T ≥ 10° C.)	A (“A” refers to AUC @10 uM >= 12)
CC(c1nnc(-c2cc(Oc3c(F)cc4[nH]ccc4c3F)ccc2F)[nH]1)c1cccc(CCC(=O)O)c1F (single isomer, unassigned) [Example 252A, 3-(3-(1-(5-(5-((4,6-difluoro-1H-indol-5-yl)oxy)-2-fluorophenyl)-4H-1,2,4-triazol-3-yl)ethyl)-2-fluorophenyl)propanoic acid]	B (B: 5-10° C.)	A (“A” refers to AUC @10 uM >= 12)
CC(c1cnc(-c2cc(Oc3c(F)cc4[nH]ccc4c3F)ccc2F)[nH]1)c1cc(F)cc(CCC(=O)O)c1F (single isomer, unassigned) [Example 132B, 3-(3-(1-(2-(5-((4,6-difluoro-1H-indol-5-yl)oxy)-2-fluorophenyl)-1H-imidazol-5-yl)ethyl)-2,5-difluorophenyl)propanoic acid]	A (A: T ≥ 10° C.)	A (“A” refers to AUC @10 uM >= 12)

From patent US20240279220A1, “INDOLE COMPOUNDS AND METHODS OF USE” (Genzyme Corporation, priority 2021, published 2024)
